Values of other authors as cited in patent US20250082627A1, “TOBACCO HARM REDUCTION AND PAIN RELIEF PRODUCTS AND METHODS THEREOF” (Ready Mix Naturals, LLC, priority 2023, published 2025).

Key:
TRPA1 = TRPA1 (Homo sapiens, UniProt O75762)
TRPV2 = biological target: T1, TRPV2 (Homo sapiens, UniProt Q9Y5S1); settings: among phytocannabinoids
T1 sequence (Q9Y5S1 1-764): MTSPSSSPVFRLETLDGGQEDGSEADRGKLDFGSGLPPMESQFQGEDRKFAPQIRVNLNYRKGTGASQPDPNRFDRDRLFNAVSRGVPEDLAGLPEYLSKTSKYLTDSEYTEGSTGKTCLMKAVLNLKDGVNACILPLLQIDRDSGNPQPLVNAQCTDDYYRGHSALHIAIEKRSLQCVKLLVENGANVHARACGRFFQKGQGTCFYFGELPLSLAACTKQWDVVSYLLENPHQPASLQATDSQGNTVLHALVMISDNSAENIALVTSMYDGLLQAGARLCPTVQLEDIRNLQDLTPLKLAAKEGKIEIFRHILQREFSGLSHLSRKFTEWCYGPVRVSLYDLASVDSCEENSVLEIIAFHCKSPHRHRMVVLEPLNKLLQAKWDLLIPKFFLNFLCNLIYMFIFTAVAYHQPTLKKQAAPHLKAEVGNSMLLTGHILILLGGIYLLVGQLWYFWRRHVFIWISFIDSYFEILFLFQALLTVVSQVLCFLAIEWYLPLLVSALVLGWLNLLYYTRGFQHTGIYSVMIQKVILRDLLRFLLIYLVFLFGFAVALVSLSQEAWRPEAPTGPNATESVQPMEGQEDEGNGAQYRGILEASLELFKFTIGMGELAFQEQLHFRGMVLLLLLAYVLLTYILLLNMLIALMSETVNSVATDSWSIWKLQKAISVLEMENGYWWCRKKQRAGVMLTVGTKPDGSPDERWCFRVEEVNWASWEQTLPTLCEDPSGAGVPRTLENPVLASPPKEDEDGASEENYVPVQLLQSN

TRPV1 = TRPV1 (Homo sapiens, UniProt Q8NER1); settings: among phytocannabinoids
TRPV1, sequence (Q8NER1 whole entry, species assumed): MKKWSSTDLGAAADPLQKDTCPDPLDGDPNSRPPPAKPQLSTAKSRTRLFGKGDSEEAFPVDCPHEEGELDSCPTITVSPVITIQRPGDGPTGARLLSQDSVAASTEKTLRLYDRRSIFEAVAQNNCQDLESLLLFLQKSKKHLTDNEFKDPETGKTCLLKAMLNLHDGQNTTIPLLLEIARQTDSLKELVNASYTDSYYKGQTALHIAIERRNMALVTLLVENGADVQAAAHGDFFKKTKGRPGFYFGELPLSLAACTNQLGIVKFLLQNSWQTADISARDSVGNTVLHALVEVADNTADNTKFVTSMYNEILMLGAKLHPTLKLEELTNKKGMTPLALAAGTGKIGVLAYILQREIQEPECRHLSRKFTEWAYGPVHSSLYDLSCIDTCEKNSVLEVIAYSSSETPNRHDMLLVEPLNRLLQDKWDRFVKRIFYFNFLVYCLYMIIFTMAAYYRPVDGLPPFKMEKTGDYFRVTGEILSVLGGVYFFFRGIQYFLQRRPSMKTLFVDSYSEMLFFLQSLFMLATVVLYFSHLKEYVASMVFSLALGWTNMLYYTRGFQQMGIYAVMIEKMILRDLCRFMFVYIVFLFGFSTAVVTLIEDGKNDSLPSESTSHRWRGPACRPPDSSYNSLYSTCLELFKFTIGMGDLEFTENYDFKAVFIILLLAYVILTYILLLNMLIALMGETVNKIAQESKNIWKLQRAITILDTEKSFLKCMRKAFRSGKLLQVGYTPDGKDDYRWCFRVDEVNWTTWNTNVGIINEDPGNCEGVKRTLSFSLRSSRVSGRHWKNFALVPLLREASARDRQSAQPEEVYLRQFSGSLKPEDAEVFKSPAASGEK

TRPA1, sequence (O75762 whole entry, species assumed): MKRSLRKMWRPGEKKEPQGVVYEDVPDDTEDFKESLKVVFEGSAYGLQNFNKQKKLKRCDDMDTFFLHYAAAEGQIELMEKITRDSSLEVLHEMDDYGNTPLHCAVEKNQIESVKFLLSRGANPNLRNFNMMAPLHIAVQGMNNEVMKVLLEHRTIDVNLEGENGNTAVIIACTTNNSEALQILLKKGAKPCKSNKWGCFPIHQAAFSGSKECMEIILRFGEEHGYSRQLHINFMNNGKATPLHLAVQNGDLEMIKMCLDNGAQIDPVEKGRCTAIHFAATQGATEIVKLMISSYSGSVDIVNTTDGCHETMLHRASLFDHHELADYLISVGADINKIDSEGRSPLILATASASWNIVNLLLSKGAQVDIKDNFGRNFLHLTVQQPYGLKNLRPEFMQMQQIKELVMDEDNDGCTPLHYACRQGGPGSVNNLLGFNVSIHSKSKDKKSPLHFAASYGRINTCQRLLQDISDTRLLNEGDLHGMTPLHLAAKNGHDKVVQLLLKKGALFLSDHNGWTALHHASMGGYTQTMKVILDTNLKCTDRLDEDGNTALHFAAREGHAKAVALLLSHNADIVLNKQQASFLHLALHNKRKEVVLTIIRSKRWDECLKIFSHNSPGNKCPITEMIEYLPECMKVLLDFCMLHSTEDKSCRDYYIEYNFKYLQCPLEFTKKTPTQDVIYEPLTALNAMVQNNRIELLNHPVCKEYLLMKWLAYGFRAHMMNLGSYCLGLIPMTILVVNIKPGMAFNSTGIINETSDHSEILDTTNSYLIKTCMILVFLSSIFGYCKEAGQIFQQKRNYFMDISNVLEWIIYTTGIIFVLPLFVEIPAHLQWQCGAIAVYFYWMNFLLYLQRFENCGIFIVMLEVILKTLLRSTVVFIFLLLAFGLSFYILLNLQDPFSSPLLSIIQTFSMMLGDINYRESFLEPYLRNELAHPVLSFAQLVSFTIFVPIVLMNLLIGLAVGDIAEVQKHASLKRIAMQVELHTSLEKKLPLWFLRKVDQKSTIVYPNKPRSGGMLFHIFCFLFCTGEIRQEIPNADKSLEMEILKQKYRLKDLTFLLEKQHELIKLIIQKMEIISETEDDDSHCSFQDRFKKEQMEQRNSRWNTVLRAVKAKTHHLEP

SMILES | activation of TRPA1 (TRPA1) | activation of TRPV2 (TRPV2) | agonism of TRPV1 (TRPV1)
CN1CCCC1c1cccnc1 (stereo not shown) [nicotine] | known activator of TRPA1 |  | 
CCCCCc1cc(O)c2c(c1)OC(C)(C)[C@@H]1CCC(C)=C[C@@H]21 [Δ^9-THC, Δ^9-tetrahydrocannabinol] | also activates TRPA1 | most potent phytocannabinoid for activating TRPV2 | 
C=C(C)[C@@H]1CCC(C)=C[C@H]1c1c(O)cc(CCCCC)cc1O [CBD, cannabidiol] |  |  | most potent and efficacious phytocannabinoid agonist of TRPV1
